These results are taken from patent publication US9408924B2, “Bioconjugates of cyanine dyes” (LI-COR, INC., priority 2010, dated 2016).

Series [1] has as its system U87 tumor cells (integrins). Nature of the series: In vivo optical imaging with 10-labeled cyclo(RGDfK) probe. Also noted: species or system Mice. Here is the method:
The suitability of compound 10 for in vivo optical imaging was evaluated using an 10-labeled cyclo(Arg-Gly-Asp-D-Phe-Lys) (RGDfK) probe. This probe was specifically designed to target integrins. Integrins are cell surface heterodimeric glycoproteins important in cell adhesion and signal transduction. This receptor class is involved in tumor growth, tumor invasiveness, metastasis, tumor-induced angiogenesis, inflammation, osteoporosis, and rheumatoid arthritis.
Mice were implanted with U87 tumor cells. The animals were injected and imaged while the tumors were still extremely small. This provided a good test of how visible the tumors are over any background signal that the probe detected.
Tumors were excised, weighed, and imaged on a Pearl Imager (FIG. 3).

Series [2] can be described thus: Absorption and emission of the dye. Format: physicochemical. As to the method: Compound 9 (80 mg), 3-(2-carboxyethyl)phenylboronic acid (40 mg), and cesium carbonate (20 mg) were stirred into water (20 mL) under nitrogen at room temperature. Tetrakis(triphenylphosphine)palladium (0) (10 mg) were added to the reaction mixture. The mixture was refluxed for 4 h, and the solvent and volatile compounds then were evaporated under vacuum. The crude product was purified by flash chromatography on silica 60, 200-400 mesh, eluting with a 20/80 acetonitrile/water mixture. The purified compound 56 had λMeOH=680 nm, λPBS=672 nm, ε=160,000.
Fluorescence determinations were made at a fixed antibody concentration of 10 μg/mL in physiological buffer using dye-labeled goat anti-rabbit (GAR) conjugates prepared at LI-COR (FIGS. 13A-B and 14). A dye-labeled lactalbumin conjugate was also tested (FIG. 15).
20's absorbance and emission maximum is at 676 nm in aqueous solution and at 693 nm in methanol.

For series [3], the system named is A431 subcutaneous tumors. Put plainly: In vivo dose testing of 10/EGF. On the set-up: species or system nude mice. To be noted: excised organs 48 h post injection. As to the method:
Testing for optimal dose in nude mice bearing A431 subcutaneous tumors was done. Four doses were tested: 0.5, 1, 2, and 3 nmoles. Two mice were used per treatment dosage. A431 tumor cells were implanted on the right hip and allowed to reach approximately 0.5 cm. FIG. 31 presents dorsal views of all animals under a common LUT.

In series [4] the test system is U87GM cells. Nature of the series: Plate-based evaluation of cell binding (on-cell Western). The conditions noted are these: <0.5 μM; in comparison to a specific targeted probe. As to the method:
Compound 10/RGD and 10/EGF were prepared to be used in conjunction with 10 to estimate relative non-specific binding of the dye relative to a labeled targeted agent. The on-cell Western was the format used and imaged on the Odyssey Sa.
In a plate-based evaluation of 10/RGD on U87GM cells, 10 was added to assess level of cell binding (FIG. 27).

Series [5] is described as follows: In vivo clearance study of carboxylate 10. On the set-up: species or system Nude mice. As to the method:
Nude mice were used for the clearance study with the carboxylate and for the targeted agent evaluation. A dose of 2 nmol 10 was administered intravenously (IV) via the tail vein of the mouse and serial imaged over the next 48 h with the Pearl Impulse imaging system. Excised organs were evaluated to assess organs with the highest retention.

Series [6] in a line: Photostability comparison on nitrocellulose membrane. Format: physicochemical. The conditions noted are these: dye-labeled GAR on nitrocellulose; repeated Odyssey scans; normalized to time zero. As to the method:
Test samples were prepared by spotting equimolar amounts of dye (i.e., goat anti-rabbit (GAR) secondary antibodies labeled with the appropriate dye) onto nitrocellulose membrane. The membrane was then scanned repeatedly on an Odyssey Infrared Imager, and the signal intensity was normalized to the control signal at time zero (FIG. 19A-B).

Turning to `CC1(C)C(/C=C/C(=C/C=C2\N(CCCS(=O)(=O)[O-])c3ccc(S(=O)(=O)[O-])cc3C2(C)C)c2cccc(CCC(=O)NCCCC[C@@H]3NC(=O)[C@@H](Cc4ccccc4)NC(=O)[C@H](CC(=O)[O-])NC(=O)CNC(=O)[C@H](CCCNC(=N)N)NC3=O)c2)=Nc2c1cc(Cl)c[n+]2CCCS(=O)(=O)[O-].[Na+].[Na+].[Na+]` [Compound 21, Sodium 2-((2S,5R,8S,11S)-5-benzyl-8-(4-(3-(3-((1E,3Z,5Z)-1-(5-chloro-3,3-dimethyl-7-(3-sulfonatopropyl)-3H-pyrrolo[2,3-b]pyridin-7-ium-2-yl)-5-(3,3-dimethyl-5-sulfonato-1-(3-sulfonatopropyl)indolin-2-ylidene)penta-1,3-dien-3-yl)phenyl)propanamido)butyl)-11-(3-guanidinopropyl)-3,6,9,12,15-pentaoxo-1,4,7,10,13-pentaazacyclopentadecan-2-yl)acetate], in series [1] (1 nmol), the clearance and background entry is given as “cleared the system without an undue level of background”. Moreover, the “time post-injection by which tumors were visible” value in series [1] (1 nmol intravenously, two tumor-bearing mice) is recorded as at most 5 h. Also, the detectability of tumors result in series [1] (1 nmol, extremely small tumors (9 and 15 mg)) is on record as “easily detectable”.

In the case of `CC1(C)C(/C=C/C(=C/C=C2/N(CCCS(=O)(=O)[O-])c3ccc(S(=O)(=O)[O-])cc3C2(C)C)c2cccc(CCC(=O)O)c2)=Nc2c1cc(Cl)c[n+]2CCCS(=O)(=O)[O-].[Na+].[Na+]` [Compound 10], in series [2] (MeOH), the “Extinction Coefficient” value was 170,000, the “Max. Abs.” value was 680 nm and the “Max. Emis.” value turned out to be 694 nm. For the same molecule, in series [2] (PBS), the “Extinction Coefficient” value is listed as 160,000, the “Max. Abs.” value is given as 672 nm and the “Max. Emis.” value is 694 nm. In addition, the “signal from the tumor cells” value in series [3] is recorded as “very little signal from the tumor cells”. Moreover, the “level of cell binding” value in series [4] is “low levels of cell binding”. Besides, the “time of signal spike” value in series [5] (2 nmol IV) is listed as “about 1 hour”. Further, in series [5] (2 nmol IV, 44 hr period), the “retention in the kidneys” value is recorded as “very little retention in the kidneys, if at all” and the route of clearance entry was “clears via the liver/gall bladder/intestinal tract”. In addition, the “time by which total signal is dramatically reduced” value in series [5] (2 nmol IV, whole-image ROI) is at most 4 h. Further, the “retention in excised organs” value in series [5] (44 hr post injection, liver, heart, kidney, spleen, intestine, muscle, tumor) was “very little retention of probe”.

In the case of `C[Si](C)(CCC[N+](CCCS(=O)(=O)[O-])(CCCS(=O)(=O)[O-])CCCS(=O)(=O)[O-])O[Si]1(O[Si](C)(C)CCC[N+](CCCS(=O)(=O)[O-])(CCCS(=O)(=O)[O-])CCCS(=O)(=O)[O-])n2c3c4ccccc4c2N=C2N=C(N=c4c5ccccc5c(n41)=NC1=NC(=N3)c3ccccc31)c1cccc(OCCCOC(=O)NCCCCCC(=O)ON3C(=O)CCC3=O)c12.[Na+].[Na+].[Na+].[Na+]` (centres unmarked) [Compound 700DX], the “relative fluorescence on repeated scanning (photostability)” value in series [6] is “unchanged”.
